Here are results for 1 molecule from patent US8460646B2, “Methods and compositions for treating mammalian nerve tissue injuries” (Purdue Research Foundation, priority 1998, dated 2013).

The test system of test [1] is crushed spinal cord ventral white matter strip. As to the kind of experiment: Potassium channel blockade (4-AP) as adjunct to PEG-mediated recovery of CAP conduction. Particulars: for Enhancement of recovered CAP by 4-AP, group data: 5 cords; for Enhancement of recovered CAP by 4-AP: reversible. Details: species or system guinea pig. How it is done: The above-described technique should be considered as a basic one, from which testing of several variations described below was performed. For example, tests were made of the response of “recovering” axons to the additional application of the fast potassium channel blocker, 4 aminopyridine (4-AP). In this trial, 5 separate cords were treated with an application of PEG as described above and compared to 5 control cords. One hour after compression, 100 pM 4-AP (in Krebs' solution) was applied for 15 minutes and then washed free with normal Krebs' solution as described above.
Spinal cords were crushed, isolated and treated with PEG as described in Example 1. Analysis was also performed in the double sucrose recording chamber as described in Example 1.

The test system is the same in test [2]. Particulars: in vitro; Shi and Borgens 1999; cited from earlier work.

In the case of `Nc1ccncc1` [4-AP, 4-aminopyridine], the “Enhancement of recovered CAP by 4-AP, group data” value in test [1] (PEG-treated (experimental) group) is on record as “about 70%”; in test [1] (control group (crushed, no PEG)), “about 40%”. The “Enhancement of recovered CAP by 4-AP” value is listed as “about 70%” in test [1] (PEG-treated cord, 4-AP at 1 hour post PEG application, individual test) and “about 40%” in test [1] (crushed cord untreated with PEG, 100 pM 4-AP at 1 hour post injury, single test). In test [2], the “Magnitude of the recovered CAP after local 4-aminopyridine in PEG-repaired cord” value is on record as “nearly doubles”.
